One compound from patent US12594282B2, “Use of small molecule compounds in the treatment of diseases mediated by lung epithelial cell injury and/or vascular endothelial cell injury” (Guangzhou Cellprotek Pharmaceutical Co., Ltd., priority 2020, dated 2026) can be followed below.

Molecules are shown by their SMILES.

The test system of one assay is PFKFB3. Put plainly: Glutamate-induced PFKFB3 expression in primary cerebellar granule neurons (Western blot). The note with it: 10 μM, pre-incubation 20 mins; 200 μM glutamate for 5 mins and 15 mins. The format is cell-based, mice. As for the experimental part: The cells were obtained from SD P7-8 neonatal mice. The cerebellum was taken, and the meninges and blood vessels were removed using microtweezers; the isolated cerebellar tissue was transferred to another dish containing dissection solution. The tissue was cut into pieces as small as possible using a tissue scissor. Digestion: The tissue in pieces was added into 7 mL of 0.25% trypsin digestive solution with a pipet, and was digested at 37° C. for 15 mins; the bench surface was cleaned and the instruments were washed. The container was turned upside down several times every five minutes to bring the tissue into better contact with the digestive solution. End of digestion: After the digestion, it can be seen that the tissue was sticked together and suspended in the liquid due to cell disruption and release of DNA. The digestion was terminated by adding 3 mL of […] 10% FBS DMEM medium. The container was turned upside down several times, and it can be observed that the remaining tissue dispersed due to DNA hydrolysis. Centrifugation was performed at 1000 rpm for 5 mins. As much supernatant as possible was carefully removed. Collection of single cell suspension: 7 mL of DNase-containing 10% FBS DMEM medium was taken with a pipet, by which the tissue pellet was gently pipeted. […] The cells were counted with a hand-held cell counter, and the seeding density was 4.0-5.0×10^5 cells/mL. […]

The next assay deals with NR4A3. Put plainly: NR4A3 protein expression under OGD-R, RAOEC (Western blot, immunofluorescence). To be noted: OGD 4 hours, restoration 24 hours, 1, 3, 10 μM given at restoration. It is filed as cell-based, rat. As for the experimental part: HUVEC cells were cultured in modified DMEM medium containing 10% fetal bovine serum. When the cells reached about 80% confluence, the cells were digested with 0.25% trypsin, and then pipetted evenly with modified DMEM containing 10% […]. The cell concentration was adjusted to 1×10^5 cells/mL, and the cells were seeded at 400 uL/well in a 24-well plate, and the experiment was carried out when the cells grew to about 70% confluence. RAOEC cells were cultured in high-glucose DMEM medium containing 10% fetal bovine serum, and the seeding conditions were the same as those of HUVEC. During the OGD-R injury treatment, the hypoxia workstation was set to have an oxygen concentration of 1% (1% O2, 5% CO2, 94% N2), a temperature of 37° C., and a humidity of 85%. A sugar-free DMEM medium was placed in the hypoxia workstation for pre-hypoxia for 3 hours. The medium in the culture plate was aspirated, and the plate was washed twice with preheated sugar-free DMEM medium, and 100 uL of sugar-free DMEM medium was added to each well. The culture plate was placed in the hypoxia workstation, and 300 uL of pre-hypoxic sugar-free DMEM medium was added to each well, and then the culture plate was placed in the hypoxia workstation for additional hypoxia for 4 hours. Restoration was then performed. The culture plate was taken out, and the sugar-free DMEM medium was replaced with 400 uL of normal medium containing 10% fetal bovine serum, and then the plate was placed in a 37° C. 5% CO2 cell incubator for culturing for 24 hours or a specified time period. For the cells in the normal group, it was only replaced with 400 uL of new normal medium containing 10% fetal bovine serum. […]
The cells were washed twice with pre-cooled PBS, then scraped off with a cell scraper and transferred to a 1.5 mL centrifuge tube, and centrifugation was performed at 4° C. and 1000 g for 5 minutes. […] Each protein sample was then quantified using the BCA protein quantification kit. After protein quantification, protein lysis buffer was used to adjust the protein concentration of each sample to be consistent with the protein sample with the lowest concentration, and then each protein sample was sufficiently mixed with 5× protein loading buffer at a ratio of 4:1. […]

Consider `C[C@@]12CCCC1C1C[C@@H](O)[C@]3(O)C[C@@H](O)CC[C@]3(C)C1CC2` (stereo partly drawn) [YC-6, 5α-androst-3β,5,6β-triol], for which the “glutamate-induced up-regulation of intracellular PFKFB3 expression” value with PFKFB3 is reported as “significantly inhibited this rapid increase”. The NR4A3 protein expression entry in the assay with NR4A3 was “dose-dependently increase the protein expression of NR4A3”.
